Results reported in patent US20120252792A1, “METHODS AND COMPOSITIONS FOR MODULATING RHO-MEDIATED GENE TRANSCRIPTION” (THE REGENTS OF THE UNIVERSITY OF MICHIGAN, priority 2009, published 2012).

How the values were obtained:
Type in all cases: cell-based, human
Rho/MKL1 pathway = assay: SRE.L-firefly luciferase reporter (dual luciferase assay), Gα12QL-transfected PC-3 cells; settings: Homo sapiens, 19 h; for inhibition at 10 µM / inhibition at 100 µM: DMSO alone = 0%; for inhibition at 10 µM: read-out: % inh SRE.L (10 μM); for inhibition at 100 µM: read-out: % inh SRE.L (100 μM)
Method: (§1) Dual Luciferase Assay: Seed PC-3 prostate cancer cells (40,000 cells/well) were grown in 96-well plates in 10% FBS containing DMEM medium. Cells were transiently transfected with the Gα12QL activator of the Rho/MKL1 pathway, along with the SRE.L-firefly luciferase reporter construct for 6 hours. Additionally, cells were co-transfected with the TK-Renilla luciferase reporter as an indicator of non-specific compound effects. Various concentrations of selected compounds were added to the 96-well plates. Plates were incubated for 19 hours at 37° C. and 5% CO2 in 0.5% FBS containing DMEM medium. Cells were lysed with 1X Passive Lysis Buffer (Promega). Plates were incubated for 30 minutes at room temperature. Luminescence counts were read with a Victor2 (Perkin-Elmer) plate reader.

[1] = tested on: PC-3 prostate cancer cells; assay: WST1 cell viability assay; settings: Homo sapiens, PC-3 cells, just before lysis; for inhibition at 10 µM: PC-3, 10 μM, read-out: % inh WST-1 (10 μM); for inhibition at 100 µM: PC-3, 100 μM, read-out: % inh WST-1 (100 μM)
Method: WST1 Cell Viability Assay: One hour prior to cell lysis for the dual luciferase assay, 10 μl per well of WST1 reagent (Roche) was added to the 96-well plates. Plates were incubated for 1 hour at 37° C. and 5% CO2. Cell viability was measured by WST1 absorbance at 450 nm with a Victor2 (Perkin-Elmer) plate reader.

[2] = tested on: TK-Renilla luciferase reporter; assay: TK-Renilla (pRL-TK) luciferase reporter, indicator of non-specific compound effects; settings: Homo sapiens, PC-3, 19 h, PC-3 cells; for inhibition at 10 µM: read-out: % inh PRL-TK (10 μM); for inhibition at 100 µM: read-out: % inh PRL-TK (100 μM)
Method: as §1

What does the source list for `O=C(CONC(=O)c1cc(C(F)(F)F)cc(C(F)(F)F)c1)Nc1ccc(Cl)cc1` [Compound 1, N-(2-(4-chlorophenylamino)-2-oxoethoxy)-3,5-bis(trifluoromethyl)benzamide]?
IC50 (Rho/MKL1 pathway): 4.7 µM; inhibition at 10 µM (Rho/MKL1 pathway): 71%; inhibition at 100 µM (Rho/MKL1 pathway): 100%; inhibition at 10 µM [1]: 42%; inhibition at 100 µM [1]: 91%; inhibition at 10 µM [2]: 53%; inhibition at 100 µM [2]: 89%

Which IC50 (Rho/MKL1 pathway) does the source give for `O=C(CC1CCCCN1C(=O)c1cc(C(F)(F)F)cc(C(F)(F)F)c1)Nc1ccc(Cl)cc1` (stereo not shown) [Compound 26, 2-(1-(3,5-bis(trifluoromethyl)benzoyl)piperidin-2-yl)-N-(4-chlorophenyl)acetamide] here?
The IC50 was 9.9 µM.

What about the inhibition at 10 µM (Rho/MKL1 pathway) of the same molecule?
Its inhibition at 10 µM is 41%.

What about the inhibition at 100 µM (Rho/MKL1 pathway) of the same molecule?
Its inhibition at 100 µM is 85%.

What about the inhibition at 10 µM [1] of the same molecule?
The inhibition at 10 µM was 0%.

And the inhibition at 100 µM [1]?
Its inhibition at 100 µM is 27%.

What about the inhibition at 10 µM [2] of the same molecule?
The inhibition at 10 µM was 0%.

What about the inhibition at 100 µM [2] of the same molecule?
Its inhibition at 100 µM is 76%.

With `O=C(Nc1ccc(Cl)cc1)c1cccc(NC(=O)c2cc(C(F)(F)F)cc(C(F)(F)F)c2)c1` [Compound 14, N-(3-(4-chlorophenylcarbamoyl)phenyl)-3,5-bis(trifluoromethyl)benzamide] as the molecule, how does the IC50 (Rho/MKL1 pathway) read?
The IC50 was 1.7 µM.

And the inhibition at 10 µM (Rho/MKL1 pathway)?
The inhibition at 10 µM was 79%.

What about the inhibition at 10 µM [1] of the same molecule?
Its inhibition at 10 µM is 38%.

What about the inhibition at 10 µM [2] of the same molecule?
Its inhibition at 10 µM is 0%.

`O=C(Nc1ccc(Cl)cc1)C1CCN(C(=O)c2cc(C(F)(F)F)cc(C(F)(F)F)c2)C1` (stereo not shown) [Compound 27, 1-(3,5-bis(trifluoromethyl)benzoyl)-N-(4-chlorophenyl)pyrrolidine-3-carboxamide] was tested. Which IC50 (Rho/MKL1 pathway) did it give?
Its IC50 is 15.6 µM.

And the inhibition at 10 µM (Rho/MKL1 pathway)?
Its inhibition at 10 µM is 30%.

And the inhibition at 100 µM (Rho/MKL1 pathway)?
The inhibition at 100 µM was 100%.

And the inhibition at 10 µM [1]?
Its inhibition at 10 µM is 0%.

What about the inhibition at 100 µM [1] of the same molecule?
Its inhibition at 100 µM is 86%.

What about the inhibition at 10 µM [2] of the same molecule?
Its inhibition at 10 µM is 14%.

What about the inhibition at 100 µM [2] of the same molecule?
The inhibition at 100 µM was 92%.

Which IC50 (Rho/MKL1 pathway) does the source give for `O=C(CCNCc1cc(C(F)(F)F)cc(C(F)(F)F)c1)Nc1ccc(Cl)cc1` [Compound 22, 3-(3,5-bis(trifluoromethyl)benzylamino)-N-(4-chlorophenyl)propanamide] here?
The IC50 was 8.1 µM.

What about the inhibition at 10 µM (Rho/MKL1 pathway) of the same molecule?
The inhibition at 10 µM was 64%.

And the inhibition at 100 µM (Rho/MKL1 pathway)?
The inhibition at 100 µM was 100%.

And the inhibition at 10 µM [1]?
Its inhibition at 10 µM is 0%.

And the inhibition at 100 µM [1]?
Its inhibition at 100 µM is 92%.

And the inhibition at 10 µM [2]?
The inhibition at 10 µM was 12%.

And the inhibition at 100 µM [2]?
Its inhibition at 100 µM is 91%.

Which IC50 (Rho/MKL1 pathway) does the source give for `FC(F)(F)c1cc(CNCCCNc2ccc(Cl)cc2)cc(C(F)(F)F)c1` [Compound 28, N^1-(3,5-bis(trifluoromethyl)benzyl)-N^3-(4-chlorophenyl)propane-1,3-diamine] here?
Its IC50 is 9.1 µM.

What about the inhibition at 10 µM (Rho/MKL1 pathway) of the same molecule?
Its inhibition at 10 µM is 65%.

What about the inhibition at 100 µM (Rho/MKL1 pathway) of the same molecule?
The inhibition at 100 µM was 100%.

And the inhibition at 10 µM [1]?
The inhibition at 10 µM was 0%.

And the inhibition at 100 µM [1]?
Its inhibition at 100 µM is 89%.

What about the inhibition at 10 µM [2] of the same molecule?
The inhibition at 10 µM was 6%.

And the inhibition at 100 µM [2]?
The inhibition at 100 µM was 90%.

What does the source list for `O=C(Nc1ccc(Cl)cc1)c1ccc(NC(=O)c2cc(C(F)(F)F)cc(C(F)(F)F)c2)cc1` [Compound 38]?
IC50 (Rho/MKL1 pathway): > 100 µM; inhibition at 10 µM (Rho/MKL1 pathway): 0%; inhibition at 10 µM [1]: 0%; inhibition at 10 µM [2]: 0%

With `O=C(CCc1cnnn1-c1cc(C(F)(F)F)cc(C(F)(F)F)c1)Nc1ccc(Cl)cc1` [Compound 59] as the molecule, how does the IC50 (Rho/MKL1 pathway) read?
Its IC50 is over 100 µM.

And the inhibition at 10 µM (Rho/MKL1 pathway)?
Its inhibition at 10 µM is -3%.

And the inhibition at 100 µM (Rho/MKL1 pathway)?
Its inhibition at 100 µM is 4.7%.

And the inhibition at 10 µM [1]?
The inhibition at 10 µM was -9.5%.

What about the inhibition at 100 µM [1] of the same molecule?
The inhibition at 100 µM was -11.8%.

What about the inhibition at 10 µM [2] of the same molecule?
Its inhibition at 10 µM is -31.8%.

And the inhibition at 100 µM [2]?
Its inhibition at 100 µM is -13.3%.

What does the source list for `O=C(CONC(=O)c1cc(C(F)(F)F)cc(C(F)(F)F)c1)Nc1cccc(Cl)c1` [Compound 10, N-(2-(3-chlorophenylamino)-2-oxoethoxy)-3,5-bis(trifluoromethyl)benzamide]?
IC50 (Rho/MKL1 pathway): 5.9 µM; inhibition at 10 µM (Rho/MKL1 pathway): 65%; inhibition at 100 µM (Rho/MKL1 pathway): 100%; inhibition at 10 µM [1]: 49%; inhibition at 100 µM [1]: 97%; inhibition at 10 µM [2]: 51%; inhibition at 100 µM [2]: 89%

What does the source list for `O=C(NCCCOc1ccc(Cl)cc1)c1cc(C(F)(F)F)cc(C(F)(F)F)c1` [Compound 19, N-(3-(4-chlorophenoxy)propyl)-3,5-bis(trifluoromethyl)benzamide]?
IC50 (Rho/MKL1 pathway): 8.9 µM; inhibition at 10 µM (Rho/MKL1 pathway): 55%; inhibition at 100 µM (Rho/MKL1 pathway): 86%; inhibition at 10 µM [1]: 0%; inhibition at 100 µM [1]: 38%; inhibition at 10 µM [2]: 28%; inhibition at 100 µM [2]: 65%
